Data on 41 molecules can be found in patent US20040034019A1, “Piperazine and piperidine derivatives” (priority 2002, published 2004).

Counter-ions that a name gives are not always drawn. Where only a bound is given, the exact number is not on record here.

The experiment has as its system rat embryo ventral mesencephalic cells. Kind of experiment: Neuroprotection assay (NMDA neuroexcitotoxic injury, high affinity 3H-dopamine uptake). Format: cell-based, Sprague-Dawley rat. Particulars: embryonic day 15 rat VM cell culture, NMDA (100-400 μM) for 20 hours. An excerpt:
The neuroprotective activity of the compounds of this invention may be assayed using rat embryo ventral mesencephalic cells in culture which are subsequently exposed to the glutamate receptor agonist NMDA. This assay is described in detail in the example section.
The ventral mesencephalic region was dissected out of embryonic day 15 Sprague-Dawley rat embryos (Harlan), dissociated into single cell suspension by a combination of trypsinization and trituration (Costantini et al., Neurobiol Dis., pp. 97-106 (1998). Dissociated VM cells were plated into poly-L-ornithine-coated 96-well plates at a density of 85,000 cells/well in 100 uL of DMEM supplemented with 18% heat-inactivated horse serum, 0.24% glucose, 2 mM glutamine and 50 u/ml penicillin/streptomycin and incubated in a 5% CO2 incubator. After one day in culture (DIV1), the medium was replaced with 100 μL of a defined medium (DMEM supplemented with 1× N2 cocktail (Gibco-BRL), 0.12% glucose, 2 mM glutamine, and 50 units/ml penicillin/streptomycin) containing DMSO or various concentrations of the compounds of this invention. On DIV5, neuroexcitotoxic injury was induced by the addition of various concentrations of the glutamate receptor agonist NMDA (100-400 μM). Cultures were incubated with the neurotoxin for 20 hours and the effects of neurophilin compounds were assessed using high affinity ^3H-dopamine uptake according to a procedure published by Park and Mytilineou [Brain Res., 599, pp. 83-97 (1992)].

One may read the EC50 as the concentration at which the effect is half-maximal. As to `CCN1CCCC[C@H]1C(=O)N1C[C@@H]2C[C@H]1CN2Cc1ccccc1` (stereo in doubt) [Compound 24, 1-(5-benzyl-2,5-diaza-bicyclo[2.2.1]-hept-2-yl)-1-((S)-1-ethyl-piperidino-2-yl)-methanone], the 50% effective concentration (EC50) is greater than 500 nM.

For `CCN1CCCC[C@H]1C(=O)N1CCN(c2ccccn2)CC1` [Compound 2], the EC50 is greater than 500 nM.

For `CN1CCC=C(C(=O)N2CCN(C(c3ccccc3)c3ccccc3)CC2)C1` [Compound 4], the EC50 was greater than 500 nM.

`O=C([C@@H]1CCCN1Cc1ccccc1)N1CCN(C(c2ccccc2)c2ccccc2)CC1` [Compound 7]: the half-maximal effective concentration (EC50) was less than 100 nM.

As to `CN1CCC[C@H]1C(=O)N1CCN(C(c2ccccc2)c2ccccc2)CC1` [Compound 8], the 50% effective concentration (EC50) was greater than 500 nM.

As for `CN1CCC(C(=O)N2CCN(C(c3ccccc3)c3ccccc3)CC2)CC1` [Compound 11], the half-maximal effective concentration (EC50) is greater than 500 nM.

For `CCN1CCCC[C@H]1C(=O)N1C[C@@H]2C[C@H]1CN2C(c1ccccc1)c1ccccc1` [Compound 17, 1-[(1S, 4S)-5-(1,1-Diphenylmethyl)-5-diazabicyclo[2.2.1]-hept-2-yl]-1-((S)-1-ethylpiperidin-2-yl)methanone], the EC50 lay within 100 to 500 nM.

Regarding `O=C1C[C@@H](C(=O)N2CCC(Cc3ccccc3)CC2)N(Cc2ccccc2)C1` [Compound 29, (2S)-1-Benzyl-5-(4-benzylpiperidine-1-carbonyl)-pyrrolidin-3-one], the EC50 lay in the range of 100 to 500 nM.

For `CON=C1C[C@@H](C(=O)N2CCC(Cc3ccccc3)CC2)N(Cc2ccccc2)C1` [Compound 31, (2S)-1-Benzyl-5-(4-benzylpiperidine-1-carbonyl)-pyrrolidin-3-one O-methyl-oxime], the EC50 was in the range of 100 to 500 nM.

`CCN1CCCC[C@H]1C(=O)N1CCN(c2ccccc2)CC1` [Compound 39, ((2S)-1-Ethylpiperidin-2-yl)-(4-phenylpiperazin-1-yl)-methanone dihydrochloride]: the EC50 was less than 100 nM.

As for `CCN1CCCC[C@H]1C(=O)N1CCN(C(c2ccccc2)c2ccc(F)cc2)CC1` (stereo partly drawn) [Compound 42, ((2S)-1-Ethylpiperidin-2-yl)-{4-[(4-fluorophenyl)phenylmethy]-piperazin-1-yl}-methanone dihydrochloride], the EC50 was less than 100 nM.

For the molecule `O=C([C@@H]1CCCN1Cc1ccccc1)N1CCN(C(c2ccc(F)cc2)c2ccc(F)cc2)CC1` [Compound 51, ((2S)-1-Benzylpyrrolidin-2-yl)-{4-bis-(4-fluorophenyl)methyl]-piperazin-1-yl}-methanone dihydrochloride], the EC50 is greater than 500 nM.

As for `C=CCN1CCCC[C@H]1C(=O)N1CCN(C(c2ccc(F)cc2)c2ccc(F)cc2)CC1` [Compound 64, ((2S)-1-Allylpiperidin-2-yl)-{4-[bis-(4-fluorophenyl)methyl]-piperazin-1-yl}-methanone], the 50% effective concentration (EC50) is greater than 500 nM.

On to `CCN1CCCC[C@H]1C(=O)N1CCN(CCCc2ccccc2)CC1` [Compound 70, ((2S)-1-Ethylpiperidin-2-yl)-[4-(3-phenylpropyl)-piperazin-1-yl]-methanone dihydrochloride], for which the 50% effective concentration (EC50) was 100 to 500 nM.

Regarding `CCN1CCCC[C@H]1C(=O)N1CCN(Cc2ccc(Cl)cc2)CC1` [Compound 72, [4-(4-Chlorobenzyl)-piperazin-1-yl]-((2S)-1-ethylpiperidin-2-yl)-methanone dihydrochloride], the concentration giving a half-maximal response (EC50) was greater than 500 nM.

As to `CCN1CCCC[C@H]1C(=O)N1CCN(Cc2cccs2)CC1` [Compound 73, ((2S)-1-Ethylpiperidin-2-yl)-(4-thiophen-2-ylmethylpiperazin-1-yl)-methanone dihydrochloride], the 50% effective concentration (EC50) was greater than 500 nM.

With `CCN1CCCC[C@H]1CN1CCN(C(c2ccc(F)cc2)c2ccc(F)cc2)CC1` [Compound 102, 1-[Bis-(4-fluorophenyl)methyl)-4-((2S)-1-ethylpiperidin-2-ylmethyl)-piperazine.], the EC50 is less than 100 nM.

As to `CN1CSC(C)(C)[C@H]1C(=O)N1CCC(Cc2ccccc2)CC1` [Compound 200], the concentration for a half-maximal effect (EC50) was 100 to 500 nM.

Take `CCN1CC=C[C@H]1C(=O)N1CCN(C(c2ccc(F)cc2)c2ccc(F)cc2)CC1` [Compound 201]: the EC50 was greater than 500 nM.

Turning to `CCN1C[C@H]2C[C@@H]2C1C(=O)N1CCN(C(c2ccc(F)cc2)c2ccc(F)cc2)CC1` (some centres unmarked) [Compound 203], the EC50 lay in the range of 100 to 500 nM.

In the case of `CCN1CC[C@H](C)[C@H]1C(=O)N1CCN(C(c2ccc(F)cc2)c2ccc(F)cc2)CC1` [Compound 205], the 50% effective concentration (EC50) is less than 100 nM.

Turning to `CN1[C@@H](C(=O)N2CCC(Cc3ccccc3)CC2)CC[C@H]1c1ccccc1` [Compound 206], the concentration for a half-maximal effect (EC50) is less than 100 nM.

On to `CCN1C(C)CC[C@H]1C(=O)N1CCN(C(c2ccc(F)cc2)c2ccc(F)cc2)CC1` (some centres unmarked) [Compound 207], for which the EC50 was 100 to 500 nM.

Regarding `CCN1CCC[C@]1(C)C(=O)N1CCN(C(c2ccc(F)cc2)c2ccc(F)cc2)CC1` [Compound 209], the EC50 was 100 to 500 nM.

As for `CCN1CSC[C@H]1C(=O)N1CCN(C(c2ccc(F)cc2)c2ccc(F)cc2)CC1` [Compound 211], the EC50 is greater than 500 nM.

`CCN1[C@@H](C(=O)N2CCN(C(c3ccc(F)cc3)c3ccc(F)cc3)CC2)CC[C@H]1c1ccccc1` [Compound 213]: the concentration for a half-maximal effect (EC50) was greater than 500 nM.

On to `CCN1C[C@H](c2ccccc2)C[C@H]1C(=O)N1CCN(C(c2ccc(F)cc2)c2ccc(F)cc2)CC1` [Compound 215], for which the EC50 was greater than 500 nM.

Turning to `CN1CSC(C)(C)[C@H]1C(=O)N1CCN(C(c2ccc(F)cc2)c2ccc(F)cc2)CC1` [Compound 216], the EC50 is greater than 500 nM.

Regarding `CCN1CC[C@@H](c2ccccc2)[C@H]1C(=O)N1CCN(C(c2ccc(F)cc2)c2ccc(F)cc2)CC1` [Compound 217], the EC50 was greater than 500 nM.

For the molecule `O=C([C@@H]1C=CCN1Cc1ccccc1)N1CCC(Cc2ccccc2)CC1` [Compound 219], the concentration giving a half-maximal response (EC50) fell in the range of 100 to 500 nM.

Turning to `O=C(C1[C@H]2C[C@@H]2CN1Cc1ccccc1)N1CCC(Cc2ccccc2)CC1` (some centres unmarked) [Compound 221], the concentration for a half-maximal effect (EC50) was less than 100 nM.

For the molecule `CN1[C@@H](C(=O)N2CCN(C(c3ccc(F)cc3)c3ccc(F)cc3)CC2)CC[C@H]1c1ccccc1` [Compound 222], the 50% effective concentration (EC50) is greater than 500 nM.

With `C[C@H]1CCN(Cc2ccccc2)[C@@H]1C(=O)N1CCC(Cc2ccccc2)CC1` [Compound 223], the concentration giving a half-maximal response (EC50) was less than 100 nM.

For `CN1C[C@H](c2ccccc2)C[C@H]1C(=O)N1CCN(C(c2ccc(F)cc2)c2ccc(F)cc2)CC1` [Compound 224], the EC50 was greater than 500 nM.

`CCN1[C@@H](c2ccccc2)CC[C@H]1C(=O)N1CCN(C(c2ccc(F)cc2)c2ccc(F)cc2)CC1` [Compound 225]: the EC50 is less than 100 nM.

For `CC1CC[C@@H](C(=O)N2CCC(Cc3ccccc3)CC2)N1Cc1ccccc1` (some centres unmarked) [Compound 227], the concentration for a half-maximal effect (EC50) is 100 to 500 nM.

On to `CN1CSC(C)(C)[C@@H]1C(=O)N1CCC(Cc2ccccc2)CC1` [Compound 228], for which the half-maximal effective concentration (EC50) was greater than 500 nM.

Regarding `C[C@@]1(C(=O)N2CCC(Cc3ccccc3)CC2)CCCN1Cc1ccccc1` [Compound 229], the 50% effective concentration (EC50) was greater than 500 nM.

As for `CN1CSC(C)(C)[C@@H]1C(=O)N1CCN(C(c2ccc(F)cc2)c2ccc(F)cc2)CC1` [Compound 230], the 50% effective concentration (EC50) is greater than 500 nM.

In the case of `O=C([C@H]1CC[C@@H](c2ccccc2)N1Cc1ccccc1)N1CCC(Cc2ccccc2)CC1` [Compound 231], the EC50 was in the range of 100 to 500 nM.

With `CCN1CC[C@H]1C(=O)N1CCC(Cc2ccccc2)CC1` [Compound 232], the concentration for a half-maximal effect (EC50) lay within 100 to 500 nM.
